In test [1] the test system is primary human subcutaneous preadipocytes. The experiment in a line: Human adipocyte differentiation (oil red-O staining). The settings on record: human adipocyte differentiation in presence of insulin and dexamethasone. It is filed as cell-based. Here is the method: Assays are carried out on primary human subcutaneous preadipocytes. Preadipocytes are inoculated at high density in preadipocyte medium (DME/F-10, 1:1, (v/v) containing 10% fetal calf serum) and maintained overnight for attachment. Drug treatment is initiated the second day by changing to serum free medium containing test compounds. The basal medium, which is used as the negative control, contains DME/F-10, biotin (33 μM), pantothenate (17 μM), insulin (100 nM), and dexamethasone (1 μM) and BRL 49653 is included as a positive control. The culture is maintained for 14 days with the compound treatment during the first five days. At the end of the culture, cells are fixed in 5% formalin and stained with oil red-O dye. The dye is extracted by isopropanol and quantitated by measure the optical density at 500 nm. EC50 values found in Table 1 reflect the human adipocyte differentiation of the compound in presence of insulin and dexamethasone.

Test [2] addresses T1, LBD (ligand binding domain) of the PPAR-γ receptor (Homo sapiens, UniProt P37231).
T1 sequence (P37231 238-503 limits assumed): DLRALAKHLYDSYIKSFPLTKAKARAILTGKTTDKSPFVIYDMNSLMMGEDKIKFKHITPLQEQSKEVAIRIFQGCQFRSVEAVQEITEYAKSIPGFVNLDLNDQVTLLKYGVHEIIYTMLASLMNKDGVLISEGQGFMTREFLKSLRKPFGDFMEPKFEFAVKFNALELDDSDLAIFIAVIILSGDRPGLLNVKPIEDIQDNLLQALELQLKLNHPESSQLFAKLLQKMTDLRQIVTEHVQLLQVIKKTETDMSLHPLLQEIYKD
The experiment in a line: Binding to PPAR-γ receptor (inhibition of 3H-PPAR-γ ligand binding to LBD). The settings on record: 8 nM 3H-PPAR ligand, 210 ng LBD/well, 2 hours. Here is the method:
Binding to PPAR-γ Receptor Compounds are assayed for their ability to inhibit the binding of 3H-PPAR-γ ligand to the LBD (ligand binding domain) of the PPAR-γ receptor. Compounds are tested at 4 concentrations (1 μM to 1 nM) in triplicate. Compounds are incubated with H3-PPAR ligand (8 nM final concentration) and LBD (210 ng/assay well) in assay buffer (50 mM Tris pH8.0. 50 mM KCL, 2 mM EDTA, 0.3% CHAPS, 0.1 mg/ml BSA, 10 mM DTT) for 2 hours with gentle shaking. Non-specific binding is measured in the presence of 10 μM excess cold competitor. Bound ligand is separated using gel filtration plates (Edge Biosystems 31909) and captured on 96 well Wallac MicroBeta plates (1450-5150 by centrifugation for 5 minutes at 2500 rpm. Radioactivity is measured in a Wallac Micro Beta counter. Table 2 gives the IC50 values of compounds 1 and 2.

The next test has as its system Zucker Obese Rats. The experiment in a line: Blood glucose lowering in diabetic rats. The class given is in vivo, rat. The settings on record: oral gavage once daily. As to the method:
[The source words this procedure for another organism and reports this organism under the same test.] Male Zucker lean rats, 24-28 weeks of age, are fed high fat chow (AIN-93-M formulation) for two weeks to elevate blood glucose. At blood glucose concentrations over 160 mg/dl, a three day pre-study baseline is established by measuring blood glucose daily (at 0700-0800 hrs) via tail vein blood extraction and measurement using a glucometer. Animals are segregated into groups of 5 based on weights and baseline glucose. Compounds are then administered to the animals at various concentrations (30 mg compound/kg body weight or 10 mg compound/kg body weight). The drugs were suspended in 0.5% carboxymethylcellulose (Sigma) in a total gavage volume of 250 μL. Animals are dosed for seven days, once daily in the morning after blood glucose and weight determination. At the end of the seven-day period, the animals are euthanized by exsanguination after isofluorane anesthesia.

[3] abbreviates: 14 day culture, compound first five days, read-out: EC50 Differentiation.
[4] abbreviates: read-out: EC50 Inhibition of Differentiation.
[5] abbreviates: Treatment Day 0 (baseline), 30 or 10 mg/kg (dose not given).

Consider three compounds from patent publication US6713514B1, “PPAR-γ agonists as agents for the treatment of type II diabetes” (Lexicon Pharmaceuticals, Inc., priority 1999, dated 2004).

Read-outs that look alike come from different tables or passages of the source. Where only a bound is given, the exact number is not on record here.

`O=C(NCCCc1ccccc1)c1ccc(C[C@H](NCc2ccccc2)C(=O)O)cc1` [Compound 1, (2S)-2-[benzylamino]-3-{4-[N-(3-phenylpropyl)carbamoyl]phenyl}propanoic acid]: the concentration for a half-maximal effect (EC50) (usually the concentration at which the effect is half-maximal) was 0.15 µM in test [1] (setting [3]) and above 10 µM in test [1] (setting [4]). Moreover, the concentration for half-maximal inhibition (IC50) (in general, the concentration needed to halve the response being measured) in test [2] worked out at 1.7 µM. Besides, the “Blood Glucose (mg/dl ± SEM)” value in the test with Zucker Obese Rats (setting [5]) was 133 ± 11 mg/dL; in the test on Zucker Obese Rats (Treatment Day 1), 134 ± 11 mg/dL; with Zucker Obese Rats (Treatment Day 2) it was 105 ± 7 mg/dL; with Zucker Obese Rats (Treatment Day 3), 105 ± 4 mg/dL; in the test on Zucker Obese Rats (Treatment Day 4), 97 ± 16 mg/dL; in the test on Zucker Obese Rats (Treatment Day 5) it was 113 ± 3 mg/dL. For the same compound, the “Blood Glucose (mg/dl ± SEM)” value with Zucker Obese Rats (Treatment Day 6) turned out to be 105 ± 6 mg/dL; in the test with Zucker Obese Rats (Treatment Day 7), 104 ± 8 mg/dL.

Consider `CN(C(=O)c1ccc(C[C@H](NCc2ccccc2)C(=O)O)cc1)C1CCCC1Sc1ccccc1` (stereo partly drawn) [Compound 2, (2S)-3-{4-[N-methyl-N(2-phenylthiocyclopentyl)carbamoyl]phenyl}-2-[benzylamino]propanoic acid], for which the concentration for a half-maximal effect (EC50) was 0.175 µM in test [1] (setting [3]) and above 10 µM in test [1] (setting [4]). Besides, the 50% inhibitory concentration (IC50) in test [2] came to 3.3 µM. The “Blood Glucose (mg/dl ± SEM)” value in the test on Zucker Obese Rats (setting [5]) came out at 133 ± 11 mg/dL; with Zucker Obese Rats (Treatment Day 1), 136 ± 5 mg/dL; with Zucker Obese Rats (Treatment Day 2), 104 ± 1 mg/dL; in the test on Zucker Obese Rats (Treatment Day 3), 100 ± 9 mg/dL; with Zucker Obese Rats (Treatment Day 4) it was 93 ± 6 mg/dL; with Zucker Obese Rats (Treatment Day 5) it was 100 ± 4 mg/dL. Moreover, the figures for the “Blood Glucose (mg/dl ± SEM)” value in the test on Zucker Obese Rats (Treatment Day 6) and in the test on Zucker Obese Rats (Treatment Day 7) were 101 ± 5 mg/dL and 92 ± 6 mg/dL, respectively.

As to `CN(CCOc1ccc(CC2SC(=O)NC2=O)cc1)c1ccccn1` (stereo not drawn) [Rosiglitizone, reference compound], the 50% effective concentration (EC50) in test [1] (setting [3]) is 0.1 µM; in test [1] (setting [4]), above 10 µM.
